Data: ChEMBL document CHEMBL1201862, “PubChem BioAssay data set” (2004)
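Compound exposure: 48 hours, 5 concentrations, 96-well plates. Abbreviation: GI50, concentration required for 50% inhibition of growth.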 Active and inactive are the calls of the source. No stated cut-off is given here; in the data, active = GI50 up to about 1.1 µM and inactive = higher.

Columns and labels:
Experiment in all cases: DTP human tumour cell line panel, 48 h
Malme-3M = tested on: Malme-3M
NCI/ADR-RES = tested on: NCI/ADR-RES
OVCAR-3 = tested on: OVCAR-3
CAKI-1 = tested on: CAKI-1
SK-MEL-28 = tested on: SK-MEL-28
K562 = tested on: K562
SF-539 = tested on: SF-539
PC-3 = tested on: PC-3
M14 = tested on: M14
COLO 205 = tested on: COLO 205
HCT-15 = tested on: HCT-15
SK-OV-3 = tested on: SK-OV-3
SF-268 = tested on: SF-268
DU-145 = tested on: DU-145
SN12C = tested on: SN12C
MDA-MB-231 = tested on: MDA-MB-231
KM12 = tested on: KM12
SW-620 = tested on: SW-620
UACC-62 = tested on: UACC-62
Hs-578T = tested on: Hs-578T

Structure (SMILES) | GI50 (Malme-3M) | GI50 (NCI/ADR-RES) | GI50 (OVCAR-3) | GI50 (CAKI-1) | GI50 (SK-MEL-28) | GI50 (K562) | GI50 (SF-539) | GI50 (PC-3) | GI50 (M14) | GI50 (COLO 205) | GI50 (HCT-15) [µM] | GI50 (SK-OV-3) | GI50 (SF-268) | GI50 (DU-145) | GI50 (SN12C) | GI50 (MDA-MB-231) | GI50 (KM12) | GI50 (SW-620) | GI50 (UACC-62) | GI50 (Hs-578T)
C=CC1(CCC(Br)C(C)(C)Cl)CO1 (stereo not given) | > 10 µM (inactive) | > 10 µM (inactive) | > 10 µM (inactive) | > 10 µM (inactive) | > 10 µM (inactive) | > 10 µM (inactive) | > 10 µM (inactive) | > 10 µM (inactive) | > 10 µM (inactive) | > 10 µM (inactive) | > 10 | > 10 µM (inactive) | > 10 µM (inactive) | > 10 µM (inactive) | > 10 µM (inactive) | > 10 µM (inactive) | > 10 µM (inactive) | > 10 µM (inactive) | – | –
COc1ccc(-c2cc(-c3ccc(Cl)cc3)n(C3OC(CO)C(O)C(O)C3O)c(=S)c2C#N)cc1 (stereo not given) | – | – | – | – | 72.8 µM (inactive) | > 100 µM (inactive) | > 100 µM (inactive) | > 100 µM (inactive) | 30 µM (inactive) | 51.1 µM (inactive) | 38.5 | > 100 µM (inactive) | 20.6 µM (inactive) | 4.04 µM (inactive) | > 100 µM (inactive) | 37.5 µM (inactive) | 49.9 µM (inactive) | 48.2 µM (inactive) | > 100 µM (inactive) | > 100 µM (inactive)
CCC(=O)C1(c2ccccc2)CCN(C)CC1 | > 100 µM (inactive) | > 100 µM (inactive) | – | > 100 µM (inactive) | > 100 µM (inactive) | > 100 µM (inactive) | – | > 100 µM (inactive) | > 100 µM (inactive) | > 100 µM (inactive) | > 100 | > 100 µM (inactive) | > 100 µM (inactive) | > 100 µM (inactive) | – | – | > 100 µM (inactive) | > 100 µM (inactive) | – | > 100 µM (inactive)
COc1cc(O)c(C(C)=O)c(O)c1 | > 100 µM (inactive) | > 100 µM (inactive) | > 100 µM (inactive) | – | 52.6 µM (inactive) | 18.7 µM (inactive) | > 100 µM (inactive) | 60.7 µM (inactive) | 86.9 µM (inactive) | > 100 µM (inactive) | 76.7 | > 100 µM (inactive) | 69.8 µM (inactive) | 64.9 µM (inactive) | 59 µM (inactive) | – | > 100 µM (inactive) | > 100 µM (inactive) | 46.1 µM (inactive) | 62.7 µM (inactive)
O=C(CCc1ccc(O)c(O)c1)NCCc1ccc(O)c(O)c1 | > 100 µM (inactive) | > 100 µM (inactive) | 94.2 µM (inactive) | – | > 100 µM (inactive) | 31.7 µM (inactive) | > 100 µM (inactive) | > 100 µM (inactive) | > 100 µM (inactive) | > 100 µM (inactive) | > 100 | > 100 µM (inactive) | > 100 µM (inactive) | > 100 µM (inactive) | 37.1 µM (inactive) | 25.6 µM (inactive) | > 100 µM (inactive) | 67.6 µM (inactive) | > 100 µM (inactive) | > 100 µM (inactive)
SC1=NNC2(C(S)=N1)c1ccccc1-c1ccccc12 | > 10 µM (inactive) | > 10 µM (inactive) | – | > 10 µM (inactive) | – | > 10 µM (inactive) | > 10 µM (inactive) | – | > 10 µM (inactive) | > 10 µM (inactive) | > 10 | > 10 µM (inactive) | > 10 µM (inactive) | > 10 µM (inactive) | > 10 µM (inactive) | > 10 µM (inactive) | > 10 µM (inactive) | > 10 µM (inactive) | > 10 µM (inactive) | 0.394 µM (active)
CCCCCCCCCCCCCC1=C(O)C(=O)C(CC2=C(O)C(=O)C(CCCCCCCCCCCCC)=C(O)C2=O)=C(O)C1=O | > 100 µM (inactive) | – | > 100 µM (inactive) | > 100 µM (inactive) | > 100 µM (inactive) | 66.1 µM (inactive) | > 100 µM (inactive) | > 100 µM (inactive) | > 100 µM (inactive) | > 100 µM (inactive) | – | 44.7 µM (inactive) | 46.3 µM (inactive) | > 100 µM (inactive) | > 100 µM (inactive) | 51.9 µM (inactive) | > 100 µM (inactive) | > 100 µM (inactive) | > 100 µM (inactive) | 36 µM (inactive)
COC(=O)c1cccc(C)c1C1CN=NC12Cc1cc(C)cc(C)c1C2=O (stereo not given) | 32.2 µM (inactive) | 23.1 µM (inactive) | 47.1 µM (inactive) | 78.2 µM (inactive) | 60.4 µM (inactive) | 26.4 µM (inactive) | 56.4 µM (inactive) | – | 34.8 µM (inactive) | – | 51.1 | – | 39.8 µM (inactive) | 41.3 µM (inactive) | 37.2 µM (inactive) | 30.1 µM (inactive) | 34.4 µM (inactive) | 29.7 µM (inactive) | – | 47 µM (inactive)
COC1C(O)C(C)OC(OC2C(Oc3cccc4c(O)c5c(=O)oc6ccc(C)c7c(=O)oc(c34)c5c67)OC(C)C(O)C2O)C1O (stereo not given) | 1.35 µM (inactive) | 11.8 µM (inactive) | 2.34 µM (inactive) | – | 1.6 µM (inactive) | 0.804 µM (active) | 1.51 µM (inactive) | 4.04 µM (inactive) | 4.13 µM (inactive) | 3.41 µM (inactive) | 3.03 | 4.37 µM (inactive) | 0.904 µM (active) | 6.65 µM (inactive) | 2.52 µM (inactive) | 1.67 µM (inactive) | 1.64 µM (inactive) | 0.843 µM (active) | 1.17 µM (inactive) | 2.38 µM (inactive)
COc1ccc(NC(=O)CSC(=O)c2ccccc2)c(SCCSSCCSc2cc(OC)ccc2NC(=O)CSC(=O)c2ccccc2)c1 | 69.3 µM (inactive) | > 100 µM (inactive) | 9.57 µM (inactive) | 18.2 µM (inactive) | – | – | > 100 µM (inactive) | > 100 µM (inactive) | 15.7 µM (inactive) | 11 µM (inactive) | > 100 | 41.5 µM (inactive) | 67.5 µM (inactive) | > 100 µM (inactive) | > 100 µM (inactive) | – | 8.07 µM (inactive) | > 100 µM (inactive) | > 100 µM (inactive) | > 100 µM (inactive)
CN(C)CCN1C(=O)c2cccc3cc([N+](=O)[O-])cc(c23)C1=O [MITONAFIDE] | 0.404 µM (active) | – | 1.37 µM (inactive) | 0.153 µM (active) | 1.34 µM (inactive) | 1.56 µM (inactive) | 0.155 µM (active) | 0.931 µM (active) | 0.479 µM (active) | 0.191 µM (active) | 0.29 | 0.198 µM (active) | 0.324 µM (active) | 0.286 µM (active) | 0.179 µM (active) | 1.31 µM (inactive) | 0.321 µM (active) | 0.17 µM (active) | 0.247 µM (active) | 1.04 µM (active)
O=c1c2cc([N+](=O)[O-])cnc2sn1-c1ccc(Oc2ccccc2)cc1 | 21.7 µM (inactive) | 32.8 µM (inactive) | 36 µM (inactive) | – | 22.4 µM (inactive) | – | 23.3 µM (inactive) | 39.9 µM (inactive) | 53.8 µM (inactive) | > 100 µM (inactive) | > 100 | 19.8 µM (inactive) | 39.6 µM (inactive) | 24.8 µM (inactive) | > 100 µM (inactive) | 22.1 µM (inactive) | 78.5 µM (inactive) | 57 µM (inactive) | 41.7 µM (inactive) | 18.6 µM (inactive)
O=C1C(Cl)=C(Cl)C(=O)C(CCNc2nccs2)=C1Cl | 20.4 µM (inactive) | 25.5 µM (inactive) | 25.8 µM (inactive) | 19.3 µM (inactive) | 39 µM (inactive) | 22.3 µM (inactive) | 33.7 µM (inactive) | 18.5 µM (inactive) | 20.2 µM (inactive) | 32.8 µM (inactive) | 20.4 | > 100 µM (inactive) | 38.6 µM (inactive) | 58.7 µM (inactive) | 29.3 µM (inactive) | – | 32.7 µM (inactive) | 29.4 µM (inactive) | 20.7 µM (inactive) | 33.5 µM (inactive)
Cc1ccc([N+](=O)[O-])cc1S(=O)(=O)Nc1ccc(C2=NN(S(=O)(=O)c3cc([N+](=O)[O-])ccc3C)C(c3ccccc3O)C2)cc1 (stereo not given) | > 100 µM (inactive) | 99.8 µM (inactive) | 67.3 µM (inactive) | > 100 µM (inactive) | > 100 µM (inactive) | 31.6 µM (inactive) | – | > 100 µM (inactive) | > 100 µM (inactive) | > 100 µM (inactive) | > 100 | 51.8 µM (inactive) | 26.5 µM (inactive) | > 100 µM (inactive) | > 100 µM (inactive) | 44.6 µM (inactive) | > 100 µM (inactive) | > 100 µM (inactive) | 58.5 µM (inactive) | –
O=C1NC(=O)C2(CCC(O)C2)c2cc[n+]([O-])cc21 (stereo not given) | > 100 µM (inactive) | – | > 100 µM (inactive) | > 100 µM (inactive) | > 100 µM (inactive) | > 100 µM (inactive) | > 100 µM (inactive) | > 100 µM (inactive) | > 100 µM (inactive) | > 100 µM (inactive) | > 100 | > 100 µM (inactive) | > 100 µM (inactive) | > 100 µM (inactive) | > 100 µM (inactive) | > 100 µM (inactive) | > 100 µM (inactive) | > 100 µM (inactive) | > 100 µM (inactive) | > 100 µM (inactive)
COC(=O)[C@]1(Cc2ccc3ccccc3c2)CCCCCCN1C(=O)c1ccccc1 | > 38.5 µM (inactive) | > 34 µM (inactive) | > 24.9 µM (inactive) | – | > 37.2 µM (inactive) | > 22 µM (inactive) | > 39.6 µM (inactive) | > 22.4 µM (inactive) | > 36.1 µM (inactive) | 11.4 µM (inactive) | > 31.8 | > 49.1 µM (inactive) | > 33.8 µM (inactive) | > 43.6 µM (inactive) | > 37 µM (inactive) | > 36.4 µM (inactive) | > 34.1 µM (inactive) | > 40.8 µM (inactive) | > 35.6 µM (inactive) | 18.7 µM (inactive)
